The values that follow are results of earlier work, collected in patent US20020187165A1, “Composition for female sexual arousal” (Joseph F. Long, priority 2001, published 2002).

For the data set the following is noted: following oral administration.

With `Cn1cc([S+](C)[O-])c(=O)c2ccc(F)cc21` (stereo not shown) [flosequinan], the “time of peak plasma concentrations” value was 1 to 2 h.
